Assay results: US20060069083A1, “Pesticidal dibenzo(hetero)azepine derivatives” (priority 2002, published 2006)

Key:
[1] = test system: Meloidogyne incognita J2 larvae; test: Root-knot nematode solution assay; format: in vivo; conditions: 100 ppm; read after 72 hours; immobility regarded as mortality
Procedure: Test Procedures for Root-Knot Nematode Solution Assay (Meloidogyne incognita):
To microtiter plates containing about 1.0 mg of compound, 80:20 acetone was added to each well and the solution was mixed to obtain the desired compound concentration. The aqueous nematode suspension containing 20 to 50 Meloidogyne incognita J2 larvae per […] was added to each plate. The plates were then sealed and they were placed in an incubator at 27° C. and about 50% relative humidity. After 72 hours, the population mortality was read, whereby immobility of nematodes was regarded as mortality.

[2] = test system: Yellowfever mosquitos (aedes aegypti); test: Yellowfever mosquito water treatment test, 4th instar; format: in vivo; conditions: 50 ppm; after 6 days
Procedure: Yellowfever mosquitos (aedes aegypti)
The test compound (1 Vol % in acetone) was applied to water in glass dishes containing 4th instar aedes aegypti. The test dishes were maintained at about 25° C. and observed daily for mortality. Each test weas replicated in 3 test dishes.

SMILES | mortality compared to untreated controls [1] [%] | mortality compared to untreated controls [2]
FC(F)(F)c1ccc2c(c1)C(N1CCN(c3ccccc3)CC1)=Nc1ccccc1S2 [I-A.51] | 100 | –
Clc1ccc2c(c1)Oc1ccc(Cl)cc1C(N1CCNCC1)=N2 [I-B.23] | – | over 90%
